Columns and labels:
U-87MG cells = test: Cell death, PI staining and flow cytometry, U-87MG; format: cell-based, human; details: 5 h, serum-free medium, 37°C
Description: (§1) NSC-34 cells, a mouse motor neuron-like hybrid cell line, the A549 human lung adenocarcinoma and U-87MG human glioblastoma cell lines were incubated with the (1-26)N-Ter-Antp, D-(15-26)N-Ter-Antp, (1-20)N-Ter-Antp, (5-20)N-Ter-Antp, or (10-20)N-Ter-Antp peptides in the appropriate serum-free growth medium for 5 h at 37°C. Cells were harvested, and analyzed for cell death using propidium iodide (PI) staining and flow cytometry. For XTT, the CellTiter 96 AQueous one-solution cell proliferation assay was used to follow cell viability as described previously ([Leyton-Jaimes et al., 2016]).
(§2) NSC-34 (A), U-87MG (B), or A549 (C) cells were incubated with the indicated concentrations of (1-26)N-Ter-Antp (∙), D-(15-26) (19-26)N-Ter-Antp (▲), (1-20)N-Ter-Antp (∘), (5-20)N-Ter-Antp (□) or (10-20)N-Ter-Antp (◆) peptide for 5 h. Cell death was analyzed using PI staining and flow cytometry. […] Cell viability analysis was performed with the CellTiter 96 AQueous one-solution cell proliferation assay with ELISA at 490 nm. […] The significance of quantitative analysis of triplicates of different biological repeats (n = 3) was performed by Student’s t-test; ^∗∗P < 0.01. […] Twenty-four hours post-transfection, the cells were incubated for 5 h with (10-20)N-Ter-Antp peptide (20 μM) and then analyzed for apoptosis using acridine orange and ethidium bromide staining, as described previously ([McGahon et al., 1995]). Fluorescence microscopy images were analyzed and about 100 to 300 cells were counted for each treatment in representative microscopic fields. The significance of quantitative analysis of triplicates of different biological repeats (n = 3) was performed by one-way Anova; ^∗∗P < 0.01.

A549 cells = test: Cell death, PI staining and flow cytometry, A549; format: cell-based, human; details: 5 h, serum-free medium, 37°C
Description: as §1, §2

[1] = system: NSC-34 cells transfected to express human mutant SOD1^G93A; test: Rescue of mutant SOD1^G93A toxicity, cell viability (XTT / CellTiter 96 AQueous); format: cell-based, mouse; details: NSC-34 cells expressing SOD1^G93A, increasing peptide concentrations, 5 h, XTT assay; n = 3
Description: as §1, §2
Cell viability was quantified using the XTT assay and apoptosis using acridine orange and ethidium bromide staining. […] Importantly, this effect was observed using the three non-cell death-inducing VDAC1-derived N-terminal peptides, i.e., the (1-20)-N-Ter-Antp, (5-20)-N-Ter-Antp and (10-20)-N-Ter-Antp peptides.

[2] = system: SOD1^G93A-expressing mESC-derived MNs; test: Survival of mESC-derived motor neurons; format: cell-based, mouse
Description: (§3) This cell line carries green fluorescent protein (GFP) under the control of the promoter for the motor neuron (MN)-specific transcription factor HB9 (HB9:GFP cells) ([Di Giorgio et al., 2007]). We used the SOD1^G93A mESC line to derive GFP^+ MNs.
(§4) Motor neuron differentiation was induced as described previously with some modifications ([Wichterle et al., 2002]). Cells were cultured in ADFNB medium composed of advanced D-MEM/F12:Neurobasal (1:1), 0.1 mM 2-mercaptoethanol, and GlutaMAX supplement, B27 supplement, and N2 supplement all from Invitrogen, to form embryoid bodies (EBs), and supplemented with 0.1 μM of retinoic acid (RA, Sigma), as well as 0.5 μM of sonic hedgehog (Shh) agonist Ag1.3 (Curis) every second day.
For an in vitro differentiation assay, EBs were enzymatically dissociated after 7 days in culture with TrypLE Express (Gibco) and seeded on 0.01% poly-l-ornithine (Sigma) pre-coated coverslips followed by laminin (10 μg/ml, Sigma). Cells (5 × 10^4) were seeded on coverslip in 24-well plates with ADFNB cell medium supplemented with of Ciliary neurotrophic factor (10 ng/ml, CNTF) and Glial cell-derived neurotrophic factor (GDNF; Miltenyi Biotec). During plating, 1-20N-Ter-Antp VDAC1-peptide was added to the cultures. Half of the medium was replaced with fresh medium every second day and at the indicated time points. The cultures were fixed in 4% paraformaldehyde in PBS.
Stereological estimation of neurite lengths to evaluate neurite outgrowth in cultured cells was carried out as described previously ([Ronn et al., 2000]). The total neuritic length per cell was estimated by counting the number of GFP^+ soma and neurite intersections with test lines of an unbiased counting frame superimposed on images of cell cultures obtained using a 20× objective (NA 0.75) of a Nikon Eclipse E800 epifluorescence microscope equipped with a Nikon DXM1200F CCD camera. The absolute length, L, of neurites per cell was subsequently estimated from the number of neurite intersections, I, per cell by means of the equation L = (πd/2)I describing the relationship between the number of neurite intersections and the vertical distance, d, between the test lines used.
SOD1^G93A-expressing mESC-derived MNs were incubated with the indicated concentrations of (1-20)N-Ter-Antp peptide for 1–4 days following initiation of final differentiation. […] Scale bar, 100 μm. […] GFP fluorescence indicates the expression of the motor neuron-specific transcription factor HB9. Gross cellular morphology of surviving MNs remained unaffected by the (1-20)N-Ter-Antp peptide. Scale bar, 25 μm. (E) Quantification of MNs survival. For all assays, results are expressed as the mean ± SEM (n = 3). ^*P < 0.05.

NSC-34 cells = test: Cell death, PI staining and flow cytometry, NSC-34; format: cell-based, mouse; details: 5 h, serum-free medium, 37°C
Description: as §1, §2

[3] = system: SOD1^G93A-expressing mESC-derived MNs; test: Neurite outgrowth of mESC-derived motor neurons; format: cell-based, mouse; details: 10 μM, first 24 h; mean ± SEM n = 3, P < 0.05
Description: as §3, §4
For an in vitro differentiation assay, EBs were enzymatically dissociated after 7 days in culture with TrypLE Express (Gibco) and seeded on 0.01% poly-l-ornithine (Sigma) pre-coated coverslips followed by laminin (10 μg/ml, Sigma). […]
SOD1^G93A-expressing mESC-derived MNs were incubated with the indicated concentrations of (1-20)N-Ter-Antp peptide for 1–4 days following initiation of final differentiation. […] GFP fluorescence indicates the expression of the motor neuron-specific transcription factor HB9. […] (E) Quantification of MNs survival. For all assays, results are expressed as the mean ± SEM (n = 3). ^*P < 0.05.

1-MAVPPTYADLGKSARDVFTK-20-RQIKIWFQNRRMKWKK [(1-20)-N-Ter-Antp, like (1-26)-N-Ter-Antp but shortened by six amino acids at the C-terminus]
Cell death induction in U-87MG cells (U-87MG cells): could not induce cell death | Cell death induction in A549 cells (A549 cells): could not induce cell death | Effect on SOD1^G93A toxicity (cell viability) [1]: reduced the toxic effect of SOD1^G93A in a concentration-dependent manner | improvement of survival of SOD1^G93A-expressing MNs (fold) ([2]; 10 μM, 96 h): twofold | number of surviving MNs over the course of final differentiation ([2]; 10 μM, 96 h, n = 3, P < 0.05): significantly increased the number of surviving MNs | number of MNs present in the culture ([2]; 5 and 10 μM, 24 h after initiation of differentiation, n = 3, P < 0.05): significantly increased the number of MNs present in the culture | optimal peptide concentration for neurite outgrowth and survival ([2]; SOD1^G93A-expressing mESC-derived MNs): 10 µM | Cell death induction in NSC-34 cells (NSC-34 cells): could not induce cell death | MN neurite outgrowth [3]: significantly increased MN neurite outgrowth
